Measurements reported in US20130273057A1, “METHODS AND COMPOSITIONS FOR THE TREATMENT AND DIAGNOSIS OF VASCULAR INFLAMMATORY DISORDERS OR ENDOTHELIAL CELL DISORDERS” (Beth Israel Deaconess Medical Center, Inc., priority 2007, published 2013).
Ends that are not written are not given here.

Columns and labels:
EphA2 [1] = assay: EphA2 tyrosine phosphorylation in HUVECs stimulated with PAR agonistic peptides; format: cell-based, human; conditions: peptides at 20 μM as stimulants
Method: FIG. 37 is an immunoblot showing PAR-1 activates EphA2. Confluent HUVECs were stimulated with PAR agonistic peptides TFLLR-NH2 (PAR-1) (SEQ ID NO: 11), RLLFT-NH2 (negative control for PAR-1) (SEQ ID NO: 12), SLIGKV-NH2 (PAR-2) (SEQ ID NO: 13), GYPGKF-NH2 (PAR-4) (SEQ ID NO: 14), and thrombin. Tyrosine phosphorylation of EphA2 was determined by western blot.
Methods: HUVECs were prepared and stimulated as described in above except that the following peptides at 20 μM were used as stimulants: TFLLR-NH2 (PAR-1; SEQ ID NO: 11), RLLFT-NH2 (negative control for PAR-1; SEQ ID NO: 12), SLIGKV-NH2 (PAR-2; SEQ ID NO: 13), and GYPGKF-NH2 (PAR-4; SEQ ID NO: 14).

EphA2 [2] = assay: EphA2 tyrosine phosphorylation in HUVECs (immunoprecipitation/4G10 western blot), Src dependence; format: cell-based, human
Method: Confluent HUVECs were pretreated with either DMSO or PP2 for […] and then stimulated with 1 U/ml thrombin or […] Ephrin A1-FC. EphA2 was immunoprecipitated and tyrosine phosphorylation was detected by immunoblot using an anti-phophotyrosine antibody (top panel). The blot was stripped and reblotted with the EphA2 antibody for loading (bottom panel). Representative data from 3 independent experiments are shown.
Methods: Mouse EphrinA1 in a form of FC fusion was purchased from R and D Systems. Pharmacological agents PP2 was used to examine the role of Src in EphA2 phosphorylation. Confluent HUVECs were pretreated with PP2 (2 μM) or DMSO for 1 hour, followed by a 10-min treatment with sodium orthovandate (1 mM). Cells were then stimulated for 30 mins with either 1 U/ml thrombin or 250 ng/ml […]. HUVECs were lysed in RIPA buffer. Clarified lysates were immunoprecipitated with 2 μg of a polyclonal anti human EphA2 antibody (Santa Cruz) and Protein A/G Plus. Tyrosine phosphorylation and EphA2 were detected using the 4G10 and the EphA2 antibody (Santa Cruz), respectively.

ICAM-1 = assay: Thrombin-induced ICAM-1 upregulation in HUVECs, western blot; format: cell-based, human
Excerpt: FIGS. 33A-33B show thrombin induction of ICAM-1 upregulation in HUVECs is dependent on EphA2. […] Representative data from 3 experiments are shown. FIG. 33B is a graph showing densitometric quantification of the results in […] normalized for fold increase in ICAM-1 expression. Results were reported as fold-increase in ICAM-1 expression relative to unstimulated controls. Data are mean±s.d. of three experiments; * p<0.002.
FIGS. 34A-34B show overexpression of mouse EphA2 rescues thrombin-induced ICAM-1 upregulation in HUVECs with endogenous EphA2 knocked down. […] The cells were treated with human EphA2 specific siRNA as indicated and ICAM-1 upregulation was induced using 1 U/ml thrombin for 6 hours (T). Representative data from 4 experiments are shown. […] “−” and “+” represent without or with thrombin stimulation (1 U/ml, 6 hr). Representative results from two experiments are shown.
Methods: Two validated Stealth siRNA duplexes specific to human EphA2 and a negative control duplexes were purchased from Invitrogen (EphA2 siRNA, catalog number: 12938-022, sequence: 5′-gca agg aag ugg uac ugc ugg acu u-3′ (siRNA #1, SEQ NO ID 33) and control siRNA, catalog number 12935-300, sequence: 5-ggg acc uga ugc aga aca uca uga a-3 (siRNA #2, SEQ NO ID 34)). […] ICAM-1 protein expression were detected by western blots using an anti ICAM-1 antibodies. […]

thrombin = target: T1, thrombin (Homo sapiens, UniProt P00734); assay: In vitro thrombin activation colorimetric assay, HUVECs expressing Tie-1 endodomain with human plasma and chromogenic thrombin substrate; format: cell-based; conditions: hirudin 100 U/ml; HUVECs infected with Tie-1 endodomain adenovirus; absorbance at 405 nm
T1 construct: tissue Calbiochem 527420; host or cells: human plasma added to HUVEC monolayers
Method: HUVECs were either expressing GFP or Tie-1 endodomain. Whole human plasma supplemented with an excess chromogenic thrombin substrate (sarcosine-Pro-Arg-pNA) (Duncan, Bowie et al., Clin Chem 31: 853-855, (1985)) was added to HUVECs. Cleavage carboxyl-terminal to the arginine residue by thrombin releases […], which can be monitored by absorbance at 405 nm.
Methods: HUVECs were grown to confluency in a 12-well plate. Cells were either uninfected, infected with control GFP adenovirus, or Tie-1 endodomain adenovirus. Next day, medium was changed to fresh full EGM2-MV. 72-hr post infection, cells were washed with EBM2 basal medium (without phenol red), and 0.5 ml of assay medium [EBM2 basal medium (without phenol red)/10% human plasma (Calbiochem 527420)/200 μM chromogenic thrombin substrate (Calbiochem 539518)] was added. Hirudin (Calbiochem 377853, 100 U/ml) was added to one set of cells infected with Tie-1 endodomain. The assay was quenched by the addition of aprotinin (Sigma A1154, 5.6 U/ml). Absorbance at 405 nm was measured using a spectrophotometer and used as an indicator of thrombin activity. […]
Results: We used a colorimetric assay to determine whether expression of Tie-1 endodomain could induce activation of thrombin in vitro. […] Thrombin activation was detected by an increase in absorbance of the cleaved thrombin substrate ([…]) at 405 nm. […]

[3] = tested on: stenosis after balloon angioplasty; conditions: rabbit, rat, and pig models; cited from earlier work
[4] = tested on: Tie-1-induced inflammation in HUVECs; assay: p38 inhibition study, real-time PCR in HUVECs infected with Tie-1 adenovirus; format: cell-based, human; conditions: 48 hours post infection
Excerpt: FIG. 28 is a graph showing that Tie-1 induced endothelial inflammation is p38 dependent.
Adenovirus construction: For adenovirus production, we chose the AdEasy adenoviral expression system due to its ease of use and ability to generate high titer virus. Coding sequence of mouse Tie-1 excluding the endogenous leader sequence was amplified from cDNA prepared from mouse lung tissue. The following expression cassette was constructed: IgK leader sequence, a Flag epitope tag sequence, and the coding region of mouse Tie-1. This cassette was subcloned into the shuttle vector pAdTrack, which contains two CMV promoters to express the gene of interest and the green fluorescent protein (GFP) independently. After homologous recombination in the E. coli strain BJ5183 (Stratagene), the recombined pAdeasy DNA (PacI-cut) was used to transfect 293A cells (Invitrogen). After several rounds of amplification, the virus was purified using the Ad-Pure Adenoviral Purification Kit (BioVintage) and tittered using 293A as the host. Immediately prior to use, the virus was desalted and buffer-exchanged into endothelial growth medium using a spin column (Pierce). Adenoviral infection: Human umbilical vein endothelial cells (HUVECs) and human aortic endothelial cells (HAECs) were purchased from Cambrex and maintained as recommended by the manufacturer. To overexpress Tie-1, 200,000 endothelial cells were plated in one well of a […]. After overnight incubation, adenovirus harboring the Tie-1 expression cassette was added to the endothelial cells at MOI of 10:1. An “empty virus” expressing only GFP was used as a control. Seventeen hours later, medium was replaced with fresh medium. Cells were maintained and processed at the desired time points for the experiments described below. […] Lysates were immunoprecipitated with an anti-Tiel antibody (Santa Cruz, SC-342). Western blotting with anti phosphotyrosine antibody (4G10, Upstate) was used to determine the phosphorylation status of Tie-1. The membrane was stripped and reblotted with the anti-Tiel antibody. A portion of the lysates was immunoprecipitated with 4G10. Tyrosine phosphorylation of Tie-1 was confirmed by western blotting with the anti-Tiel antibody using these 4G10 immunoprecipitates. Antibody array experiment: HUVECs were infected as described. Forty-eight hours later, supernatants from Tie-1 expressing or GFP expressing cells were collected. After brief centrifugation to remove cell debris, the supernatants were spun through a 0.22-μm cellulose acetate filter (Spin-X, Costar). Cytokine and chemokine contents in the conditioned media were screened using the RayBio Human Inflammation Antibody Array 3.1(RayBiotech). Real-time polymerase chain reactions (PCR)—Total RNAs from endothelial cells were isolated by the RNAeasy Mini Kit (Qiagen) and used as templates in oligo-dT primed reverse transcription using the Superscript III reverse transcriptase (Invitrogen). Real-time PCRs were performed using the QuantiTect Probe PCR Kit (Qiagen) with the 7500 Real Time PCR System (Applied Biosystems). Gene of interest and GAPDH were multiplexed for normalization as described (Dupuy et al., Exp. Cell Res. 185: 363-372., (1989)). The following real time PCR probes were purchased from Applied Biosystems and used in this study: CCL2 5′-[…]-3′(SEQ ID NO: 27); VCAM-1: 5′-[…]-3 (SEQ ID NO: 28)′; ICAM: 5′-[…]-3′(SEQ ID NO: 29); CXCL10: 5′-[…]-3′(SEQ ID NO: 30); E-selectin: 5′-[…]-3′(SEQ ID NO: 31); IL-6: 5′-[…]-3′ (SEQ ID NO: 32). ELISA—HUVECs were infected as described above. Supernatants were collected from Tie-1 expressing or GFP expressing cells 70 hours post infection. The ELISA kit for human IL-6 was purchased from R and D Systems. Western blots—Endothelial cell lysates were prepared in denaturing SDS-PAGE loading buffer, sonicated, heated at 80° C. for 5 mins, and fractionated on SDS-PAGE. […]

## GYPGKF-NH2 [PAR-4 specific agonist]
EphA2 [1]
  EphA2 tyrosine phosphorylation (transactivation) in HUVECs: failed to induce

## CC(C)(C)n1nc(-c2ccc(Cl)cc2)c2c(N)ncnc21 [PP2]
EphA2 [2]; PP2 2 μM 1 hour, 250 ng/ml EphrinA1-FC 30 mins
  tyrosine phosphorylation of EphA2 by EphrinA1, sensitivity to PP2: insensitive
EphA2 [2]; PP2 2 μM 1 hour, 1 U/ml thrombin 30 mins
  thrombin-induced EphA2 tyrosine phosphorylation: completely abrogated

## TFLLR-NH2 [PAR-1 specific agonistic peptide]
EphA2 [1]
  EphA2 tyrosine phosphorylation (transactivation) in HUVECs: recapitulated EphA2 transactivation

## soluble EphA2: soluble EphA2 added in excess during thrombin stimulation
ICAM-1; soluble EphA2 at concentrations up to 1 μg/ml, thrombin 1 U/ml, 6 hr
  ICAM-1 expression induced by thrombin, block by co-incubation: failed to block

## RLLFT-NH2
EphA2 [1]
  EphA2 tyrosine phosphorylation (transactivation) in HUVECs: failed to induce

## hirudin
thrombin
  cleavage of the chromogenic thrombin substrate: completely blocked
[3]
  development of stenosis after balloon angioplasty: reduces

## SLIGKV-NH2 [PAR-2 specific agonist]
EphA2 [1]
  EphA2 tyrosine phosphorylation (transactivation) in HUVECs: failed to induce

## C[S+]([O-])c1ccc(-c2nc(-c3ccncc3)c(-c3ccc(F)cc3)[nH]2)cc1 (centres unmarked) [SB-203580]
[4]
  Tie-1-induced CCL2 upregulation: Significant inhibition
  Tie-1-induced ICAM-1 upregulation: Significant inhibition
  Tie-1-induced upregulation of E-selectin mRNA: almost completely blocked
  Tie-1-induced upregulation of IL-6 mRNA: almost completely blocked
  Tie-1-induced upregulation of IP-10 mRNA: almost completely blocked
  Tie-1-induced upregulation of VCAM-1 mRNA: almost completely blocked

B1: EphrinA1-FC: Mouse EphrinA1 in a form of FC fusion, R and D Systems (protein)
chain: DRHIVFWNSSNPKFREEDYTVHVQLNDYLDIICPHYEDDSVADAAMERYTLYMVEHQEYVACQPQSKDQVRWNCNRPSAKHGPEKLSEKFQRFTPFILGKEFKEGHSYYYISKPIYHQESQCLKLKVTVNGKITHNPQAHVNPQEKRLQADDPEVQVLHSIGYS
modifications: left off: a dimerising Fc or GST
notes: Mouse EphrinA1 in a form of FC fusion, R and D Systems
ICAM-1; EphrinA1-FC up to 10 μg/ml, no thrombin
  stimulation of ICAM-1 expression: did not stimulate
EphA2 [2]; FC-fusion protein, 250 ng/ml, 30 mins
  activation of EphA2 in endothelial cells: induced significant activation
